Results reported in US10550100B2, “5-[3-[piperzin-1-yl]-3-oxo-propyl]-imidazolidine-2,4-dione derivatives as ADAMTS 4 and 5 inhibitors for treating E.G. osteoarthritis” (GALAPAGOS NV, priority 2016, dated 2020).
Like-named read-outs stand apart in the source and are kept apart here.

Key:
Assay type in all cases: biochemical
human ADAMTS-5 = human ADAMTS-5 (Homo sapiens (Human), UniProt Q9UNA0); assay: hADAMTS-5 TBIS-1 cleavage assay, Protocol 3; conditions: Protocol 3, TBIS-1 substrate, 90 min at 37° C.; read-out: hADAMTS-5 potency IC50
human ADAMTS-5, sequence (Q9UNA0 262-930): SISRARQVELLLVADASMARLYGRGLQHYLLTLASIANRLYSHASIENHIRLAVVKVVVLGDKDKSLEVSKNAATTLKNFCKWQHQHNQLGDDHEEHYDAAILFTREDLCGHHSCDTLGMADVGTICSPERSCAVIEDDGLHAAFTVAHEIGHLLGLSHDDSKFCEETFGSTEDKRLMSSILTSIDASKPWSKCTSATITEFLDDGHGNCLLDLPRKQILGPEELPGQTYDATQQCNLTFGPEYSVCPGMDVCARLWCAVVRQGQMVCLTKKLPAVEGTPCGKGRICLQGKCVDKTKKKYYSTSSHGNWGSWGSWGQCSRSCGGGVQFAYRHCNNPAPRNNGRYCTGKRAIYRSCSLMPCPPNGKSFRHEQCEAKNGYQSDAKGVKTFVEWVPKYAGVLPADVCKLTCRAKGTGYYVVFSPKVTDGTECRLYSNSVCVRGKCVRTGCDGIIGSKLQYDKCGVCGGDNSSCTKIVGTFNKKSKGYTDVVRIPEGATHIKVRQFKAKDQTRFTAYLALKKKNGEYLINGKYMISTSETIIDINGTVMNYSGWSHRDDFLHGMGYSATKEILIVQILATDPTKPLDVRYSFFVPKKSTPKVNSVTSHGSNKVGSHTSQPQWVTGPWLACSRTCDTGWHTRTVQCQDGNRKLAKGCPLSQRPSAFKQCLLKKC
Procedure: The reaction is initiated by adding to the assay plate TBIS-1 (10 μL, 4.5 μM, Anaspec) in the same buffer.
Finally, the fluorescence is read on the Envision (Perkin Elmer) after an incubation of 90 min at 37° C. (Excitation 485 nm, emission 530).

human ADAMTS6 = human ADAMTS6 (Homo sapiens (Human), UniProt Q9UKP5); assay: hADAMTS-6 520 MMP FRET substrate XII cleavage assay; conditions: 37° C. for 2 h, read-out: hADAMTS-6 potency IC50
human ADAMTS6, sequence (Q9UKP5 other isoform, or with tags, fused parts or gaps): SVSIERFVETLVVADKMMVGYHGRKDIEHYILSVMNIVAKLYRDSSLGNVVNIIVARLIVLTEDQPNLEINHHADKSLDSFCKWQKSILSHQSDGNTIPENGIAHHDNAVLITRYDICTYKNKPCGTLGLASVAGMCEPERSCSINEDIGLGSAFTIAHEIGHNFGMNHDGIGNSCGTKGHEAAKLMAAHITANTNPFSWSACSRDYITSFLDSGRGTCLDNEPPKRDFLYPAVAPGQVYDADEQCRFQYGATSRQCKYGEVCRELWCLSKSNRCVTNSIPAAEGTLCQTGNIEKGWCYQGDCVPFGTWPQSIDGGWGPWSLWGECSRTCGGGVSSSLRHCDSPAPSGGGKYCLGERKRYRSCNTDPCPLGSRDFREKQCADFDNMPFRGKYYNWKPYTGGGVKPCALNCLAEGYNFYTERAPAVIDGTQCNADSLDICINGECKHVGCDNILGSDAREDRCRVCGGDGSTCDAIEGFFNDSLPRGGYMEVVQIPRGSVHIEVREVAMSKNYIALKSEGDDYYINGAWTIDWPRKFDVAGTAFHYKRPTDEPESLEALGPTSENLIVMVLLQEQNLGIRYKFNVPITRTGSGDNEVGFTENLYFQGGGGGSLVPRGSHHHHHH
Method in brief: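 FRET cleavage of 520 MMP Substrate XII (Arg-Pro-Lys-Pro-Tyr-Ala-Nva-Trp-Met-Lys) by 0.73 nM enzyme in 25 mM Tris pH8.0, 0.05% CHAPS, 2.5 mM CaCl2. Compound dilution series from 20 μM top, 1/5 steps; substrate added from 1 μM stock, 2 h at 37° C. Fluorescence read at exc485/em530 for IC50.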

human TACE = human TACE (Homo sapiens (Human), UniProt P78536); assay: hTACE 5FAM-[…]-5TAMRA cleavage assay; conditions: 75 min at room temperature, read-out: hTACE potency IC50
human TACE, sequence (P78536 215-671): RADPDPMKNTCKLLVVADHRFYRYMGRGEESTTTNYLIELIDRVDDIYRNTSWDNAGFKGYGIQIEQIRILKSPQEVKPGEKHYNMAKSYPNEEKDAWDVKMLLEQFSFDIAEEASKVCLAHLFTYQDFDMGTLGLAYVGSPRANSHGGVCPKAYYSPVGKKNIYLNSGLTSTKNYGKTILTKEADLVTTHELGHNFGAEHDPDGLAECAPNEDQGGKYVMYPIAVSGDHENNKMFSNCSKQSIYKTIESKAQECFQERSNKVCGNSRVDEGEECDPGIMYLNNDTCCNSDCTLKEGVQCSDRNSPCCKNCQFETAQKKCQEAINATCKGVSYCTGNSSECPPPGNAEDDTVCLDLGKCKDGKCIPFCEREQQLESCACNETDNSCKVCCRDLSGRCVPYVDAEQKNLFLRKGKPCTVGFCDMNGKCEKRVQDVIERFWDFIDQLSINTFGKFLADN
Procedure: Finally, the fluorescence is read on the Envision (Perkin Elmer) after an incubation of 75 min at room temperature (Excitation 485 nm, Emission 530).

human MMP13 = human MMP13 (Homo sapiens (Human), UniProt P45452); assay: hMMP13 390 MMP FRET Substrate I cleavage assay, Protocol 2; conditions: Protocol 2, 390 MMP FRET Substrate I; read-out: hMMP-13 potency IC50
Procedure: The basis for the assay is the cleavage of the substrate 390 MMP FRET Substrate I (Anaspec Cat# AS-27076) by human MMP13 (Chemicon, Cat#CC068).
Human MMP13 is preactivated by incubated the enzyme in the same buffer complemented with 1 mM freshly prepared p-Aminophenylmercuric acetate (AMPA) for 1 h at 37° C.
(§1) The reaction is initiated by adding to the assay plate 390 MMP FRET Substrate I (10 μL, 2.5 μM) in the same buffer.
Finally, the fluorescence is read on the Envision (Perkin Elmer) after an incubation of 45 min at room temperature (Excitation 485 nm, Emission 530).

human MMP14 = human MMP14 (Homo sapiens (Human), UniProt P50281); assay: hMMP14 390 MMP FRET Substrate I cleavage assay; conditions: 60 min at room temperature, read-out: hMMP-14 potency IC50
Procedure: The basis for the assay is the cleavage of the substrate 390 MMP FRET Substrate I (Anaspec Cat# AS-27076) by human MMP14 (Biomol, Cat#SE-259).
as §1
Finally, the fluorescence is read on the Envision (Perkin Elmer) after an incubation of 60 min at room temperature (Excitation 485 nm, Emission 530).

IC50 (human ADAMTS-5) [nM]	IC50 (human ADAMTS6) [nM]	IC50 (human TACE; 5FAM-LAQAVRSSSRK-5TAMRA) [nM]	IC50 (human MMP13) [nM]	IC50 (human MMP14) [nM]	IC50 (human TACE; 5FAM-[…]-5TAMRA) [nM]	SMILES
50 to 100	0.001 to 25		> 100	> 100	25 to 50	COc1cc(C2CCN(C(=O)CC[C@@]3(C)NC(=O)NC3=O)CC2)cc(C)c1Cl [Cpd 98, (5R)-5-[3-[4-(4-chloro-3-methoxy-5-methyl-phenyl)-1-piperidyl]-3-oxo-propyl]-5-methyl-imidazolidine-2,4-dione]
> 100	0.001 to 25		> 100	> 100	50 to 100	COc1cc(C2CCN(C(=O)CC[C@@]3(C)NC(=O)NC3=O)CC2)cc(N(C)C)c1Cl [Cpd 90, (5R)-5-[3-[4-[4-chloro-3-(dimethylamino)-5-methoxy-phenyl]-1-piperidyl]-3-oxo-propyl]-5-methyl-imidazolidine-2,4-dione]
> 100	0.001 to 25		> 100	> 100	25 to 50	CCc1cc(C2CCN(C(=O)CC[C@@]3(C)NC(=O)NC3=O)CC2)cc(OC)c1Cl [Cpd 105, (5R)-5-[3-[4-(4-chloro-3-ethyl-5-methoxy-phenyl)-1-piperidyl]-3-oxo-propyl]-5-methyl-imidazolidine-2,4-dione]
> 100	> 100	> 100	> 100	> 100		COc1c(Cl)cccc1C1CCN(C(=O)CCC2(C)NC(=O)NC2=O)CC1 (centres unmarked) [Cpd 75, 5-(3-(4-(3-chloro-2-methoxyphenyl)piperidin-1-yl)-3-oxopropyl)-5-methylimidazolidine-2,4-dione]
> 100	25 to 50	> 100	> 100	> 100		Cc1cc(Cl)c(F)cc1C1CCN(C(=O)CCC2(C)NC(=O)NC2=O)CC1 (centres unmarked) [Cpd 64, 5-(3-(4-(4-chloro-5-fluoro-2-methylphenyl)piperidin-1-yl)-3-oxopropyl)-5-methyl-imidazolidine-2,4-dione]
> 100	0.001 to 25		> 100	> 100	50 to 100	COc1cc(Cl)c(Cl)cc1C1CCN(C(=O)CC[C@@]2(C)NC(=O)NC2=O)CC1 [Cpd 96, (5R)-5-[3-[4-(4,5-dichloro-2-methoxy-phenyl)-1-piperidyl]-3-oxo-propyl]-5-methyl-imidazolidine-2,4-dione]
> 100	0.001 to 25		> 100	> 100	50 to 100	CCOc1cc(C2CCN(C(=O)CC[C@@]3(C)NC(=O)NC3=O)CC2)cc(OC)c1Cl [Cpd 87, (5R)-5-[3-[4-(4-chloro-3-ethoxy-5-methoxy-phenyl)-1-piperidyl]-3-oxo-propyl]-5-methyl-imidazolidine-2,4-dione]
50 to 100	0.001 to 25		> 100	> 100	25 to 50	COc1cc(C2CCN(C(=O)CC[C@@]3(C)NC(=O)NC3=O)CC2)cc(Cl)c1F [Cpd 80, (5R)-5-[3-[4-(3-chloro-4-fluoro-5-methoxy-phenyl)-1-piperidyl]-3-oxo-propyl]-5-methyl-imidazolidine-2,4-dione]
> 100	0.001 to 25		> 100	> 100	50 to 100	Cc1cc(Cl)c(Cl)cc1C1CCN(C(=O)CCC2(C)NC(=O)NC2=O)CC1 (centres unmarked) [Cpd 71, 5-(3-(4-(4,5-dichloro-2-methylphenyl)piperidin-1-yl)-3-oxopropyl)-5-methylimidazolidine-2,4-dione]
> 100	0.001 to 25		> 100	> 100	50 to 100	Cc1cc(C2CCN(C(=O)CC[C@@]3(C)NC(=O)NC3=O)CC2)cc(C)c1Cl [Cpd 93, (5R)-5-[3-[4-(4-chloro-3,5-dimethyl-phenyl)-1-piperidyl]-3-oxo-propyl]-5-methyl-imidazolidine-2,4-dione]
> 100	25 to 50	> 100	> 100	> 100		COc1cc(F)c(Cl)cc1C1CCN(C(=O)CC[C@@]2(C)NC(=O)NC2=O)CC1 [Cpd 101, (5R)-5-[3-[4-(5-chloro-4-fluoro-2-methoxy-phenyl)-1-piperidyl]-3-oxo-propyl]-5-methyl-imidazolidine-2,4-dione]
> 100	0.001 to 25	> 100	> 100	> 100		COc1cc(C2CCN(C(=O)CCC3(C)NC(=O)NC3=O)CC2)cc(Cl)c1F (centres unmarked) [Cpd 73, 5-(3-(4-(3-chloro-4-fluoro-5-methoxyphenyl)piperidin-1-yl)-3-oxopropyl)-5-methylimidazolidine-2,4-dione]

The remaining lines, values behind:

SMILES	IC50 (human ADAMTS-5) [nM]	IC50 (human ADAMTS6) [nM]	IC50 (human TACE; 5FAM-LAQAVRSSSRK-5TAMRA) [nM]	IC50 (human MMP13) [nM]	IC50 (human MMP14) [nM]	IC50 (human TACE; 5FAM-[…]-5TAMRA) [nM]
COc1c(Cl)cccc1C1CCN(C(=O)CC[C@H]2NC(=O)NC2=O)CC1 [Cpd 74, (R)-5-(3-(4-(3-chloro-2-methoxyphenyl)piperidin-1-yl)-3-oxopropyl) imidazolidine-2,4-dione]	> 100	> 100	> 100	> 100	> 100	
COc1cc(C2CCN(C(=O)CCC3(C)NC(=O)NC3=O)CC2)cc(OC)c1F (centres unmarked) [Cpd 72]	> 100	0.001 to 25	> 100	> 100	> 100	
COC[C@]1(C[C@H](C)C(=O)N2CCC(c3cc(C)c(Cl)c(OC)c3)CC2)NC(=O)NC1=O (stereo in doubt) [Cpd 114, 5-[3-[4-(4-chloro-3-methoxy-5-methyl-phenyl)-1-piperidyl]-2-methyl-3-oxo-propyl]-5-(methoxymethyl) imidazolidine-2,4-dione]	25 to 50	0.001 to 25		> 100	> 100	50 to 100
COc1cc(Cl)c(F)cc1C1CCN(C(=O)C(C)CC2(C)NC(=O)NC2=O)CC1 (centres unmarked) [Cpd 110, 5-[3-[4-(4-chloro-5-fluoro-2-methoxy-phenyl)-1-piperidyl]-2-methyl-3-oxo-propyl]-5-methyl-imidazolidine-2,4-dione]	50 to 100	0.001 to 25		> 100	> 100	50 to 100
CCc1cc(C2CCN(C(=O)CC[C@H]3NC(=O)NC3=O)CC2)cc(OC)c1Cl [Cpd 106, (5R)-5-[3-[4-(4-chloro-3-ethyl-5-methoxy-phenyl)-1-piperidyl]-3-oxo-propyl] imidazolidine-2,4-dione]	> 100	0.001 to 25		> 100	> 100	50 to 100
COc1cc(C2CCN(C(=O)CC[C@@]3(C)NC(=O)NC3=O)CC2)cc(OC)c1F [Cpd 81, (5R)-5-[3-[4-(4-fluoro-3,5-dimethoxy-phenyl)-1-piperidyl]-3-oxo-propyl]-5-methyl-imidazolidine-2,4-dione]	50 to 100	0.001 to 25		> 100	> 100	25 to 50
COc1cc(C2CCN(C(=O)[C@@H](C)C[C@@]3(C)NC(=O)NC3=O)CC2)cc(F)c1Cl [Cpd 102]	25 to 50	0.001 to 25		> 100	> 100	50 to 100
COC[C@]1(C[C@H](C)C(=O)N2CCC(c3cc(F)c(Cl)c(OC)c3)CC2)NC(=O)NC1=O (stereo in doubt) [Cpd 103, 5-[3-[4-(4-chloro-3-fluoro-5-methoxy-phenyl)-1-piperidyl]-2-methyl-3-oxo-propyl]-5-(methoxymethyl) imidazolidine-2,4-dione]	0.001 to 25	0.001 to 25		> 100	> 100	50 to 100
COc1cc(Cl)c(Cl)cc1C1CCN(C(=O)CC[C@H]2NC(=O)NC2=O)CC1 [Cpd 61, (R)-5-(3-(4-(4,5-dichloro-2-methoxyphenyl)piperidin-1-tl)-3-oxopropyl) imidazolidine-2,4-dione]	> 100	0.001 to 25	> 100	> 100	> 100	
CCc1cc(C2CCN(C(=O)[C@@H](C)C[C@@]3(COC)NC(=O)NC3=O)CC2)cc(OC)c1Cl (stereo in doubt) [Cpd 104, 5-[3-[4-(4-chloro-3-ethyl-5-methoxy-phenyl)-1-piperidyl]-2-methyl-3-oxo-propyl]-5-(methoxymethyl) imidazolidine-2,4-dione]	25 to 50	0.001 to 25		> 100	> 100	50 to 100
